One test concerns the target T1, Aha1 and Hsp90 complexes (Homo sapiens, UniProt O95433).
T1 construct: endogenous in cells; host or cells: PC3-MM2 cells
The experiment in a line: Co-immunoprecipitation of Hsp90α with Aha1 from PC3-MM2 cells. It is filed as cell-based. The settings on record: 10 μM, 24 hours. As for the experimental part:
(§1) Co-immunoprecipitation. Co-immunoprecipitation of Hsp90α with Aha1 from PC3-MM2 and iHek P301L cells incubated with the indicated compounds for 24 hours were performed as previously described (Ghosh, et al. ACS Chem. Biol. 2015, 10, 577-590).

The next test has as its system Hsp90. In words: Luciferase refolding assay in PC3-MM2 cells. Format: cell-based. Conditions: 2 hours; for Hsp90-mediated refolding of denatured luciferase: 0.097-100 μM; for IC50 of Hsp90-mediated luciferase refolding activity: concentrations examined 100, 25, 6.25, 1.56, 0.39 and 0.097 μM. As for the experimental part: Luciferase refolding assay. Compound dissolved in DMSO at the indicated concentrations or a DMSO control was evaluated in a luciferase refolding assay in PC3-MM2 cells as previously described (Hall, et al. J. Med. Chem. 2016, 59, 925-933) and dose-response curves of the luminescence signal relative to DMSO control were generated using GraphPad Prism 5.0.

The next test deals with T2, binding of Aha1 to Hsp90 (Homo sapiens, UniProt O95433).
T2 construct: Immunoprecipitated Aha1 from iHEK cells treated±10 μM KU-177 for 24 hours; endogenous in cells; host or cells: iHEK-P301L cells (tetracycline-inducible P301L tau)
In words: Co-immunoprecipitation of Hsp90 with Aha1 from iHEK cells. It is filed as cell-based. Conditions: 10 μM, 24 hours. As for the experimental part: (§2) Cell culture and transfection. iHek-P301L cells (Ghosh, et al. ACS Med. Chem. Lett. 2016, 7, 813-818) and luciferase expressing PC3-MM2 cells (Ghosh, et al. ACS Med. Chem. Lett. 2016, 7, 813-818) were cultured in DMEM media supplemented with 10% FBS and 1% Penicillin-Streptomycin (Invitrogen). Inducible cells were incubated with 3 μg of tetracycline for 72 h. 48 h prior to harvest, transfections were performed with 2.5 μL Lipofectamine 2000 (Invitrogen) per 1 μg of DNA, which was incubated in serum-free Opti-MEM for 5 minutes before adding the mixture dropwise to the cells. KU-177 was added 24 h prior to harvest at indicated concentrations. Cells were harvested in Tsaio TBS buffer (50 mM Tris Base, 274 mM NaCl, 5 mM KCl, pH 8.0) containing protease inhibitors. Samples were prepared as previously described (Ramsden, et al. J. Neurosci. 2005, 25, 10637-10647) to obtain soluble (S1) and sarkosyl-insoluble (P3) fractions.
as §1

Test [1] addresses T3, Recombinant human P301L tau with Hsp90 and Aha1 (Homo sapiens, UniProt O95433).
T3 construct: His tag (with TEV site) (N, cleaved yes); made in house; host or cells: E. coli (BL21) one-shot star, pet28a (tau and Aha1); Hsp90α was a gift from Dr. Johannes Buchner
In words: Thioflavin T fluorescence assay of tau fibril formation. The settings on record: 10 μM compound vs DMSO, tau with Hsp90 alone or Hsp90 and Aha1. Format: biochemical. As for the experimental part: (§3) Protein Expression. Recombinant human P301L tau, Aha1, Aha1 E67K, p23, FKBP51, FKBP52, and CDC37 were expressed and purified. Hsp90α protein was a kind gift from Dr. Johannes Buchner. Recombinant human P301L tau, Aha1, Aha1 E67K, p23, FKBP51, FKBP52, and CDC37 were cloned into bacterial expression vector, pet28a with a His tag followed by a TEV sequence. Plasmids were transformed into E. coli (BL21) one-shot star cells and plated onto kanamycin-agar plates. Plates were grown at 37° C. for approximately 16 hours. 10 mL LB broth with kanamycin starter cultures were then inoculated with a colony and the starter culture grown for 8 hours. 1 L cultures were then inoculated at 1:100 dilution and grown to OD600 of 0.8. Cultures were induced with the addition of 1 mM IPTG and the incubator temperature was reduced to 16° C. Cultures were then grown for 14 hours. Cells were then pelleted at 3,500×g for 30 minutes and supernatant discarded. Pellets were resuspended in lysis buffer (20 mM Tris-HCl pH 8.0, 500 mM NaCl, 10 mM Imidazole with protease inhibitors) and frozen at −80° C. Bacterial pellets were then thawed and lysed by sonication. Lysates were then spun at 50,000×g for 1 hr. […]
Thioflavin T Fluorescence Assay. […] Fluorescence was read at 440 nm excitation and 482 nm emission in a BioTek Synergy H1 plate reader at indicated time points. […]

The subject of test [2] is recombinant P301L tau fibrils. In words: Transmission electron microscopy of tau fibrils. It is filed as biochemical, human. The settings on record: KU-177 vs DMSO control. The procedure:
as §3, with “hr. Next, the supernatant was purified by nickel affinity chromatography (Nickel Resin, Fisher #PI88222). Protein purity and expression was then checked by Coomassie stained SDS-PAGE.” for “hr.”

A further test deals with tau in iHEK-P301L cells. The experiment in a line: Soluble and sarkosyl-insoluble tau in iHEK-P301L cells (Western blot). Format: cell-based. Conditions: 10 μM. As for the experimental part:
as §2
Western blot and dot blot analysis. Cell and mouse brain tissues samples were analyzed by Western blot using 4-15% SDS gradient gels (BioRad). Antibody dilutions were 1:1000 unless otherwise stated, and all secondary antibodies were used at 1:1000 (Southern Biotech). Blots were developed using ECL (Pierce) on a LAS-4000 mini imager (GE Healthcare). For dot blots, proteins were applied onto a wet nitrocellulose membrane and dried by vacuum. […]

We go through three compounds from US11931373B2, “HSP90 activator AHA1 drives production of pathological tau aggregates” (University of South Florida, priority 2017, dated 2024).

T1 sequence (O95433 whole entry, one chain of several): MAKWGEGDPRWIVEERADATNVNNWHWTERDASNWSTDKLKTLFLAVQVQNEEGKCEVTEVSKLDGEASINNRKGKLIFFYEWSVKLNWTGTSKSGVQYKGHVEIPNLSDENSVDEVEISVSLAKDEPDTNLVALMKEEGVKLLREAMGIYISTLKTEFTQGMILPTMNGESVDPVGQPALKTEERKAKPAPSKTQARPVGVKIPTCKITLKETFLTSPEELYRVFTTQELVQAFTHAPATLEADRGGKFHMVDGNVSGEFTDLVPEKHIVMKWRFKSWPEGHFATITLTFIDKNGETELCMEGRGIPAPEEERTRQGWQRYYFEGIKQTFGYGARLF
T3 sequence (O95433 whole entry, stated change not applied): as the sequence (O95433 whole entry, one chain of several) above

In the case of `COc1cccc(-c2cc(C(=O)Nc3cc4ccc(O[C@@H]5OC(C)(C)[C@H](OC)C(O)[C@@H]5O)c(OC)c4oc3=O)ccc2OC)c1` (stereo partly shown) [KU-174], the “Aha1 and Hsp90 complexes (immunoprecipitation of Aha1, Western blot)” value (“Aha1 and Hsp90 complexes” for short) on Aha1 and Hsp90 complexes is recorded as “inhibited”. Moreover, the “Hsp90-mediated refolding of denatured luciferase” value (“Hsp90-mediated refolding” for short) in the test with Hsp90 was “inhibited”.
Regarding `COc1cccc(-c2cc(C(=O)Nc3cc4ccc(OC(C)=O)c(OC)c4oc3=O)ccc2OC)c1` [KU-177], the “Aha1 and Hsp90 complexes” value on Aha1 and Hsp90 complexes is “inhibited”. Besides, the “binding of Aha1 to Hsp90 (immunoprecipitation of Aha1, Western blot)” value on binding of Aha1 to Hsp90 was “inhibited the binding of Aha1 to Hsp90”. Also, in the test on Hsp90, the “Hsp90-mediated refolding” value is “did not inhibit” and the “IC50 of Hsp90-mediated luciferase refolding activity” value is reported as “higher than the range of concentrations examined here”. In addition, the “Recombinant P301L tau fibril formation measured by ThT fluorescence” value in test [1] is “significantly reduce tau fibril formation”. Besides, the “tau fibril formation observed by TEM” value in test [2] is given as “robust reduction in tau fibril formation”. In addition, the sarkosyl-insoluble tau entry in the test on tau in iHEK-P301L cells (iHEK-P301L cells transfected with Aha1-WT, Aha1-E67K or empty vector) is on record as “reduce insoluble tau”. In addition, in the test with tau in iHEK-P301L cells (iHEK-P301L cells), the “soluble, phosphorylated tau” value is “increased soluble, phosphorylated tau”.
Regarding `COc1cccc(-c2cc(C(=O)Nc3cc4ccc(O)c(OC)c4oc3=O)ccc2OC)c1` [KU-308], the “Aha1 and Hsp90 complexes” value on Aha1 and Hsp90 complexes is on record as “inhibited”. In the test with Hsp90, the “Hsp90-mediated refolding” value is given as “did not inhibit” and the “IC50 of Hsp90-mediated luciferase refolding activity” value is reported as “higher than the range of concentrations examined here”.
